Test results taken from US20260234140A1, “PYRIDOPYRIMIDINE DERIVATIVE AND USE THEREOF” (SUNSHINE LAKE PHARMA CO., LTD., priority 2023, published 2026).

Tested on: PD1/PD-L1 pathway
Assay: PD1/PD-L1 Blockade Bioassay, inhibition of the PD1/PD-L1 pathway at the cellular level (luciferase reporter, PD-1 Jukat T cells co-cultured with PD-L1 aAPC/CHO-K1 cells)
Format: cell-based
Settings: T-cell; for EC50: PD-1 Jukat T cells + PD-L1 aAPC/CHO-K1 cells, 6 h co-culture, ONE-Glo luciferase readout; for Emax: maximum % Activity relative to atezolizumab (set to 100%)
Method: Experiment 1: Detecting the Inhibitory Activity of Compounds on the PD1/PD-L1 Pathway at the Cellular Level Using the PD1/PD-L1 Blockade Bioassay Method
PD-1 Jukat T cells were revived and cultured with 1640 medium containing 100 μg/mL Hygromycin B, […] Puromycin, 10% FBS and 1% dual antibody; PD-L1 aAPC/CHO-K1 cells were revived and cultured with F12K medium containing 100 μg/mL Hygromycin B, 200 μg/mL G418, 10% FBS and 1% dual antibody.
The revived cells need to be passaged 2-3 times. When the cells enter the exponential growth phase with good growth status, the PD-L1 aAPC/CHO-K1 was digested with trypsin, and the cells were resuspended in F12K containing 5% FBS and adjusted to a density of 5×10^5 cells/mL. 20 μl/well were plated in a 384-well plate (10,000 cells/well) and incubated in an incubator overnight for 16-20 h.
a Preparation of compound stock solution: Dissolve the compound to be tested in DMSO to prepare a 20 mM stock solution.
b Compound gradient dilution: dilute the compound in 1640 medium containing 5% FBS without antibiotics or phenol red, and make 3-fold gradient dilutions to prepare 10 concentration gradients (2×).
c Adding drugs: Take out the cell culture plate, discard the supernatant, add 20 μl/well of the prepared compound, and incubate in the incubator for 1.5 h.
PD-1 Jukat T cells were collected, washed once with PBS, and resuspended in 1640 medium containing 5% FBS without antibiotics or phenol red. The density was adjusted to 1×10^6 cells/mL. 20 μl PD-1 Jukat T cells (20,000 cells/well) were added to each well and incubated in the incubator for 6 h.
ONE-Glo™ Luciferase Assay reagent was thawed to room temperature in advance and then added to a 384-well plate at 40 µl/well. Incubate in the dark for 15 minutes and read the […] signal on a plate reader.
[formula] • Among them, % Activity: % Activity • RLU: Resulting Luminescence unit • RLUvehicle: Average RLU value of negative control wells on each plate • RLUpositive: Average RLU value of positive control wells on each plate • Vehicle control: DMSO (0.1%) corresponding to the test value was used as negative control (its % Activity was 0%); • Positive control: The highest detection value at the atezolizumab administration concentration was used as the positive control (its % Activity was 100%). • (2) EC50 value calculation method: The EC50 value was obtained by the nonlinear fitting formula of Graph Pad Prism 8.0 software. The calculation formula is as follows:
Y=Bottom+(Top−Bottom)/(1+10^((Log EC50−X)×HillSlope)) • X: log of activator concentration (logarithm of compound concentration); Y: % Activity • (3) Emax definition: The maximum % Activity value corresponding to the maximum activation value of the compound relative to atezolizumab (the activation value is set to 100%).

| Compound | EC50 | Emax |
| --- | --- | --- |
| COc1nc(-c2cccc(-c3cccc(Nc4nc(C(F)F)nc5cc(CN6CC[C@@H](O)C6)cnc45)c3C)c2Cl)ccc1CN(C)CC12CCC(C(=O)O)(CC1)C2 [Example 10, (R)-4-((((6-(2-chloro-3′-((2-(difluoromethyl)-7-((3-hydroxypyrrolidin-1-yl)methyl)pyrido[3,2-d]pyrimidin-4-yl)amino)-2′-methyl-[1,1′-biphenyl]-3-yl)-2-methoxypyridin-3-yl)methyl)(methyl)amino)methyl)bicyclo[2.2.1]heptane-1-carboxylic acid] | 70.7 nM | 79.3% |
| COc1nc(-c2cccc(-c3cccc(Nc4nc(C(F)F)nc5cc(CN6CCC(O)CC6)cnc45)c3C)c2Cl)cnc1CN(C)[C@H]1CC[C@H](C(=O)O)CC1 [Example 21, (1r,4r)-4-(((5-(2-chloro-3′-((2-(difluoromethyl)-7-((4-hydroxypiperidin-1-yl)methyl)pyrido[3,2-d]pyrimidin-4-yl)amino)-2′-methyl-[1,1′-biphenyl]-3-yl)-3-methoxypyrazin-2-yl)methyl)(methyl)amino)cyclohexane-1-carboxylic acid] | 105 nM | 65% |
| COc1nc(-c2cccc(-c3cccc(Nc4nc(C(F)F)nc5cc(CN6CC[C@@H](O)C6)cnc45)c3C)c2C)cnc1CN(C)[C@H]1CC[C@H](C(=O)O)CC1 [Example 27, (1r,4r)-4-(((5-(3′-((2-(difluoromethyl)-7-(((R)-3-hydroxypyrrolidin-1-yl)methyl)pyrido[3,2-d]pyrimidin-4-yl)amino)-2,2′-dimethyl-[1,1′-biphenyl]-3-yl)-3-methoxypyrazin-2-yl)methyl)(methyl)amino)cyclohexane-1-carboxylic acid] | 112 nM | 63% |
| COc1nc(-c2cccc(-c3cccc(Nc4nc(C(F)F)nc5cc(CN6CC[C@@H](O)C6)cnc45)c3C)c2Cl)ccc1CN[C@H]1CC[C@H](C(=O)O)CC1 [Example 2, (1r,4r)-4-(((6-(2-chloro-3′-((2-(difluoromethyl)-7-(((R)-3-hydroxypyrrolidin-1-yl)methyl)pyrido[3,2-d]pyrimidin-4-yl)amino)-2′-methyl-[1,1′-biphenyl]-3-yl)-2-methoxypyridin-3-yl)methyl)amino)cyclohexane-1-carboxylic acid] | 98.3 nM | 118% |
| COc1nc(-c2cccc(-c3cccc(Nc4nc(C(F)F)nc5cc(CN6CC[C@@H](O)C6)cnc45)c3C)c2Cl)cnc1CN(C)[C@H]1CC[C@H](C(=O)O)C1 [Example 52, (1S,3S)-3-(((5-(2-chloro-3′-((2-(difluoromethyl)-7-(((R)-3-hydroxypyrrolidin-1-yl)methyl)pyrido[3,2-d]pyrimidin-4-yl)amino)-2′-methyl-[1,1′-biphenyl]-3-yl)-3-methoxypyrazin-2-yl)methyl)(methyl)amino)cyclopentane-1-carboxylic acid] | 75.8 nM | 74.3% |
| COc1nc(-c2cccc(-c3cccc(Nc4nc(C(F)F)nc5cc(CN6CC[C@@H](O)C6)cnc45)c3C)c2Cl)ccc1CNC12CCC(C(=O)O)(CC1)C2 [Example 9, (R)-4-(((6-(2-chloro-3′-((2-(difluoromethyl)-7-((3-hydroxypyrrolidin-1-yl)methyl)pyrido[3,2-d]pyrimidin-4-yl)amino)-2′-methyl-[1,1′-biphenyl]-3-yl)-2-methoxypyridin-3-yl)methyl)amino)bicyclo[2.2.1]heptane-1-carboxylic acid] | 90.7 nM | 117% |
| COc1nc(-c2cccc(-c3cccc(Nc4nc(C(F)F)nc5cc(CN6CC[C@H]([C@H](C)O)C6)cnc45)c3C)c2Cl)cnc1CN(C)[C@H]1CC[C@H](C(=O)O)CC1 [Example 45, (1r,4r)-4-(((5-(2-chloro-3′-((2-(difluoromethyl)-7-(((S)-3-((S)-1-hydroxyethyl)pyrrolidin-1-yl)methyl)pyrido[3,2-d]pyrimidin-4-yl)amino)-2′-methyl-[1,1′-biphenyl]-3-yl)-3-methoxypyrazin-2-yl)methyl)(methyl)amino)cyclohexane-1-carboxylic acid] | 94.7 nM | 87.3% |
| COc1nc(-c2cccc(-c3cccc(Nc4nc(C(F)F)nc5cc(CN6CCC[C@H]6C)cnc45)c3C)c2Cl)cnc1CN(C)[C@H]1CC[C@H](C(=O)O)CC1 [Example 41] | 90.6 nM | 79% |

Compounds with a lower EC50, results first:

| EC50 | Compound | Emax |
| --- | --- | --- |
| 42.9 nM | COc1nc(-c2cccc(-c3cccc(Nc4nc(C(F)F)nc5cc(CN6CC[C@@](C)(O)C6)cnc45)c3C)c2Cl)cnc1CN(C)[C@H]1CC[C@H](C(=O)O)CC1 [Example 29, (1r,4r)-4-(((5-(2-chloro-3′-((2-(difluoromethyl)-7-(((R)-3-hydroxy-3-methylpyrrolidin-1-yl)methyl)pyrido[3,2-d]pyrimidin-4-yl)amino)-2′-methyl-[1,1′-biphenyl]-3-yl)-3-methoxypyrazin-2-yl)methyl)(methyl)amino)cyclohexane-1-carboxylic acid] | 89% |
| 41.8 nM | COc1nc(-c2cccc(-c3cccc(Nc4nc(C(F)F)nc5cc(CN6CC[C@@H](O)C6)cnc45)c3C)c2Cl)cnc1CN1CCC(C(=O)O)CC1 [Example 15, (R)-1-((5-(2-chloro-3′-((2-(difluoromethyl)-7-((3-hydroxypyrrolidin-1-yl)methyl)pyrido[3,2-d]pyrimidin-4-yl)amino)-2′-methyl-[1,1′-biphenyl]-3-yl)-3-methoxypyrazin-2-yl)methyl)piperidine-4-carboxylic acid] | 97% |
| 44.4 nM | COc1nc(-c2cccc(-c3cccc(Nc4nc(C(F)F)nc5cc(CN6CC[C@@H](CO)C6)cnc45)c3C)c2Cl)cnc1CN(C)[C@H]1CC[C@H](C(=O)O)CC1 [Example 23, (1r,4r)-4-(((5-(2-chloro-3′-((2-(difluoromethyl)-7-(((R)-3-(hydroxymethyl)pyrrolidin-1-yl)methyl)pyrido[3,2-d]pyrimidin-4-yl)amino)-2′-methyl-[1,1′-biphenyl]-3-yl)-3-methoxypyrazin-2-yl)methyl)(methyl)amino)cyclohexane-1-carboxylic acid] | 74% |
| 55.5 nM | O=C(O)C1CCN(Cc2ccnc(Nc3cccc(-c4cccc(Nc5nc(C(F)F)nc6cc(CN7CC[C@@H](O)C7)cnc56)c4Cl)c3Cl)c2F)CC1 [Example 36, (R)-1-((2-((2,2′-dichloro-3′-((2-(difluoromethyl)-7-((3-hydroxypyrrolidin-1-yl)methyl)pyrido[3,2-d]pyrimidin-4-yl)amino)-[1,1′-biphenyl]-3-yl)amino)-3-fluoropyridin-4-yl)methyl)piperidine-4-carboxylic acid] | 85% |
| 60.7 nM | COc1nc(-c2cccc(-c3cccc(Nc4nc(C(F)F)nc5cc(CN6CC[C@](C)(O)C6)cnc45)c3C)c2Cl)cnc1CN(C)[C@H]1CC[C@H](C(=O)O)CC1 [Example 46, (1r,4r)-4-(((5-(2-chloro-3′-((2-(difluoromethyl)-7-(((S)-3-hydroxy-3-methylpyrrolidin-1-yl)methyl)pyrido[3,2-d]pyrimidin-4-yl)amino)-2′-methyl-[1,1′-biphenyl]-3-yl)-3-methoxypyrazin-2-yl)methyl)(methyl)amino)cyclohexane-1-carboxylic acid] | 86.7% |
